Test results published in ChEMBL document CHEMBL1124898, “Novel agents effective against solid tumors: the diarylsulfonylureas. Synthesis, activities, and analysis of quantitative structure-activity relationships” (J Med Chem, 1990).
Converted amounts (≈) assume the structure as drawn.

Columns and labels:
[1] = Antitumor activity in vivo against the 6C3HED lymphosarcoma, dosed for 8 days at 300 mg/kg; conditions: Mus musculus, 192 h
[2] = system: CCRF-CEM; assay: Concentration required to inhibit growth of CCRF-CEM cells in culture for 72 hr to 50% of control growth; assay type: functional, cell-based; conditions: Homo sapiens

Row | IC50 [2] [µg/mL] | Structure (SMILES) | inhibition in vivo at 300 mg/kg [1] [%]
1 | > 20 | Cc1ccc(S(=O)(=O)NC(=O)Nc2ncccn2)cc1 | 0
2 | 15.7 (≈ 47.5 µM) | Cc1ccc(S(=O)(=O)NC(=O)Nc2ccc3c(c2)CCC3)cc1 | 5
3 | > 20 | COc1cc(Cl)c(Cl)cc1NC(=O)NS(=O)(=O)c1ccc(C)cc1 | 3
4 | 8.7 (≈ 24.7 µM) | CC(C)c1ccc(S(=O)(=O)NC(=O)Nc2ccc(Cl)cc2)cc1 | 65
5 | 15.2 (≈ 42.1 µM) | O=C(Nc1ccc(Cl)cc1)NS(=O)(=O)c1cccc2ccccc12 | 29
6 | 12.1 (≈ 34 µM) | O=C(Nc1ccc(Cl)cc1)NS(=O)(=O)c1ccc([N+](=O)[O-])cc1 | 70
7 | > 20 | COc1ccc(NC(=O)NS(=O)(=O)c2ccc(C)cc2)cc1 | 6
8 | > 20 | Cc1ccc(S(=O)(=O)NC(=O)Nc2c(F)cc(F)cc2F)cc1 | 27
9 | 13.9 (≈ 42.7 µM) | Nc1ccc(S(=O)(=O)NC(=O)Nc2ccc(Cl)cc2)cc1 | 43
10 | 13 (≈ 36.6 µM) | CCOc1ccc(S(=O)(=O)NC(=O)Nc2ccc(Cl)cc2)cc1 | 100
11 | > 20 | O=C(Nc1ccc2c(c1)OCO2)NS(=O)(=O)c1ccc(Cl)cc1 | 28
12 | > 20 | O=C(NCCc1ccccc1)NS(=O)(=O)c1ccc2c(c1)CCC2 | 0
13 | > 20 | Cc1ccc(S(=O)(=O)NC(=O)Nc2c(F)c(F)cc(F)c2F)cc1 | 0
14 | > 20 | Cc1ccc(S(=O)(=O)NC(=O)NCc2ccccc2)cc1 | 0
15 | > 20 | Cc1ccc(S(=O)(=O)NC(=O)NCc2ccc(Cl)cc2)cc1 | 14
16 | > 20 | Cc1ccc(S(=O)(=O)NC(=O)Nc2ccc(N(C)C)cc2)cc1 | 51
17 | > 20 | Cc1ccc(S(=O)(=O)NC(=O)Nc2cccc(Cl)c2Cl)cc1 | 37
18 | 17.6 (≈ 44.5 µM) | O=C(Nc1ccc(Br)cc1)NS(=O)(=O)c1ccc2c(c1)CCC2 | 92
19 | 10.4 (≈ 30.7 µM) | CCc1cccc(S(=O)(=O)NC(=O)Nc2ccc(Cl)cc2)c1 | 95
20 | > 20 | Cc1ccc(S(=O)(=O)NC(=O)Nc2cc(F)cc(F)c2)cc1 | 52
21 | > 20 | CCc1cccc(NC(=O)NS(=O)(=O)c2ccc(C)cc2)c1 | 0

Row | IC50 [2] [µg/mL] | Structure (SMILES) | inhibition in vivo at 300 mg/kg [1] [%]
22 | 9 (≈ 21.3 µM) | CCCCCCCCc1ccc(S(=O)(=O)NC(=O)Nc2ccc(Cl)cc2)cc1 | 9
23 | > 20 | CC(=O)Nc1ccc(S(=O)(=O)NC(=O)Nc2ccc(C(F)(F)F)cc2)cc1 | 22
24 | 14.5 (≈ 44.1 µM) | O=C(Nc1ccc(F)cc1)NS(=O)(=O)c1ccc(Cl)cc1 | 74
25 | > 20 | Cc1ccc(S(=O)(=O)NC(=O)Nc2ccncc2)cc1 | 24
26 | 9.1 (≈ 25.7 µM) | O=C(Nc1ccc(Cl)cc1)NS(=O)(=O)c1ccc2c(c1)OCO2 | 100
27 | 13.8 (≈ 39.1 µM) | CCCc1ccc(S(=O)(=O)NC(=O)Nc2ccc(Cl)cc2)cc1 | 79
28 | > 20 | O=C(Nc1ccc(Cl)cc1)NS(=O)(=O)c1ccc(CO)cc1 | 15
29 | > 20 | CCCOc1cccc(NC(=O)NS(=O)(=O)c2ccc(C)cc2)c1 | 0
30 | > 20 | Cc1ccc(S(=O)(=O)NC(=O)Nc2ccc(-c3ccccc3)cc2)cc1 | 0
31 | > 20 | Cc1ccc(S(=O)(=O)NC(=O)Nc2cccc(Cl)c2)cc1 | 13
32 | > 20 | Cc1ccc(S(=O)(=O)NC(=O)Nc2ccc(OCc3ccccc3)cc2)cc1 | 0
33 | 17.4 (≈ 47.2 µM) | COC(=O)c1ccc(S(=O)(=O)NC(=O)Nc2ccc(Cl)cc2)cc1 | 49
34 | – | Cc1ccc(S(=O)(=O)NC(=O)Nc2ccc(S(N)(=O)=O)cc2)cc1 | 27
35 | – | Cc1ccc(S(=O)(=O)NC(=O)Nc2cccc(C)c2C)cc1 | 8
36 | > 20 | Cc1ccc(S(=O)(=O)NC(=O)Nc2nc[nH]n2)cc1 | 0
37 | > 20 | Cc1ccc(S(=O)(=O)NC(=O)NCCc2ccccc2)cc1 | 24
38 | > 20 | Cc1ccc(S(=O)(=O)NC(=O)Nc2ccc(S(C)(=O)=O)cc2)cc1 | 7
39 | – | Cc1ccc(S(=O)(=O)NC(=O)Nc2ccc(OC(F)F)cc2)cc1 | 15
40 | > 20 | Cc1ccc(S(=O)(=O)NC(=O)Nc2cccc(C)c2)cc1 | 0
41 | 13.5 (≈ 36.6 µM) | O=C(Nc1ccc(Cl)cc1)NS(=O)(=O)c1ccc2c(c1)OCCO2 | 49
42 | > 20 | CSc1cccc(NC(=O)NS(=O)(=O)c2ccc(C)cc2)c1 | 20

Row | IC50 [2] [µg/mL] | Structure (SMILES) | inhibition in vivo at 300 mg/kg [1] [%]
43 | 7.3 (≈ 19 µM) | Cc1ccc(S(=O)(=O)NC(=O)Nc2ccc(Br)c(C)c2)cc1 | 81
44 | > 20 | Cc1ccc(S(=O)(=O)NC(=O)NC2CCC(O)CC2)cc1 (stereo not drawn) | 0
45 | 12.4 (≈ 33.8 µM) | CCc1ccc(S(=O)(=O)NC(=O)Nc2ccc(Cl)cc2)cc1CC | 46
46 | 18.4 (≈ 49.2 µM) | Cc1ccc(S(=O)(=O)NC(=O)Nc2ccc(OC(F)(F)F)cc2)cc1 | 17
47 | > 20 | Cc1ccc(S(=O)(=O)NC(=O)Nc2ccc3[nH]ncc3c2)cc1 | 0
48 | > 20 | Cc1ccc(S(=O)(=O)NC(=O)Nc2ccc(C#N)cc2)cc1 | 31
49 | > 20 | Cc1ccc(S(=O)(=O)NC(=O)Nc2cc(Cl)cc(Cl)c2)cc1 | 21
50 | > 20 | Cc1ccc(S(=O)(=O)N(C)C(=O)Nc2ccc(Cl)cc2)cc1 | 17
51 | > 20 | O=C(Nc1ccc(F)cc1)NS(=O)(=O)c1ccc2c(c1)CCC2 | 39
52 | 11.6 (≈ 38.1 µM) | Cc1ccc(NC(=O)NS(=O)(=O)c2ccc(C)cc2)cc1 | 91
53 | 19.7 (≈ 56.9 µM) | CCCCc1ccc(NC(=O)NS(=O)(=O)c2ccc(C)cc2)cc1 | 8
54 | > 20 | Cc1ccc(S(=O)(=O)NC(=O)Nc2ccc(OCC(F)(F)F)cc2)cc1 | 30
55 | – | Cc1ccc(S(=O)(=O)NC(=O)Nc2cc(C(C)(C)C)on2)cc1 | 5
56 | 18.6 (≈ 47.4 µM) | Cc1ccc(S(=O)(=O)NC(=O)Nc2ccc(Cl)c(C(F)(F)F)c2)cc1 | 18
57 | > 20 | CCOC(=O)c1ccc(NC(=O)NS(=O)(=O)c2ccc(C)cc2)cc1 | 12
58 | 7.3 (≈ 21.5 µM) | Cc1ccc(S(=O)(=O)NC(=O)Nc2ccc(Cl)c(C)c2)cc1 | 85
59 | > 20 | O=C(NCCc1ccccc1)NS(=O)(=O)c1ccc2ccccc2c1 | 0
60 | > 20 | Cc1ccc(S(=O)(=O)NC(=O)Nc2nncs2)cc1 | 16
61 | > 20 | Cc1ccc(S(=O)(=O)NC(=O)Nc2cnccn2)cc1 | 0
